Species: Rattus norvegicus
Experiment: Open TG-GATES - Regimen: Daily Repeat
Format: toxicity, organism-based, Sprague-Dawley
Design: regimen Daily Repeat, gender Male, age 6 weeks
Details: in vivo, po, route gavage; for APTT / Bas / Eos / Fbg / Hb / Ht / Lym / MCH / MCHC / MCV / Mono / Neu / PT / Plat / RBC / Ret / WBC: tissue Blood; for KIDNEY_L / KIDNEY_R / KIDNEY_TOTAL: tissue Kidney; for LIVER: tissue Liver; for A/G / ALP / ALT / AST / BUN / CRE / Ca / Cl / DBIL / GLC / IP / K / LDH / Na / PL / RALB / TBIL / TC / TG / TP / gamma-GTP: tissue Plasma
[1] = 0 mg/kg, 72 h, dose level Control, time 3 day
[2] = 0 mg/kg, […], dose level Control, time 7 day
[3] = 0 mg/kg, […], dose level Control, time 14 day
[4] = 0 mg/kg, […], dose level Control, time 28 day
[5] = 100 mg/kg, 72 h, dose level Low, time 3 day
[6] = 100 mg/kg, […], dose level Low, time 7 day
[7] = 100 mg/kg, […], dose level Low, time 14 day
[8] = 100 mg/kg, […], dose level Low, time 28 day

## Cc1nnc2n1-c1ccc(Cl)cc1C(c1ccccc1Cl)=NC2 [TRIAZOLAM]
[1]
  TERMINAL_BW: 223.3 g
  APTT: 19.2 s
  Bas: 0%
  Eos: 1.2%
  Fbg: 272.8 mg/dL
  Hb: 13.7 g/dL
  Ht: 40.9%
  Lym: 75.6%
  MCH: 21 pg
  MCHC: 33.5%
  MCV: 62.7 fL
  Mono: 3%
  Neu: 19.2%
  PT: 13 s
  Plat: 121.4 x10_4/uL
  RBC: 651.8 x10_4/ul
  Ret: 7.4%
  WBC: 85.5 x10_2/uL
  KIDNEY_L: 1 g
  KIDNEY_R: 1 g
  KIDNEY_TOTAL: 1.9 g
  LIVER: 10.5 g
  A/G: 0.9
  ALP: 1815 IU/L
  ALT: 48.2 IU/L
  AST: 75.8 IU/L
  BUN: 15 mg/dL
  CRE: 0.2 mg/dL
  Ca: 11.3 mg/dL
  Cl: 104.8 meq/L
  DBIL: 0.014 mg/dL
  GLC: 172.2 mg/dL
  IP: 8.4 mg/dL
  K: 4 meq/L
  LDH: 74.8 IU/L
  Na: 143.2 meq/L
  PL: 168.8 mg/dL
  RALB: 2.6 g/dL
  TBIL: 0.054 mg/dL
  TC: 86.4 mg/dL
  TG: 126 mg/dL
  TP: 5.6 g/dL
  gamma-GTP: 1.2 IU/L
[2]
  TERMINAL_BW: 259.3 g
  APTT: 21.5 s
  Bas: 0%
  Eos: 1.2%
  Fbg: 262.4 mg/dL
  Hb: 13.7 g/dL
  Ht: 40.7%
  Lym: 76.4%
  MCH: 20.6 pg
  MCHC: 33.7%
  MCV: 61.2 fL
  Mono: 2.4%
  Neu: 19.4%
  PT: 12.8 s
  Plat: 126.9 x10_4/uL
  RBC: 665.6 x10_4/ul
  Ret: 5.6%
  WBC: 92.9 x10_2/uL
  KIDNEY_L: 1.1 g
  KIDNEY_R: 1.1 g
  KIDNEY_TOTAL: 2.2 g
  LIVER: 11.8 g
  A/G: 0.9
  ALP: 1652.6 IU/L
  ALT: 45.4 IU/L
  AST: 75 IU/L
  BUN: 16.8 mg/dL
  CRE: 0.2 mg/dL
  Ca: 10.9 mg/dL
  Cl: 105.8 meq/L
  DBIL: 0.01 mg/dL
  GLC: 188.2 mg/dL
  IP: 7.6 mg/dL
  K: 4.3 meq/L
  LDH: 73.6 IU/L
  Na: 141.8 meq/L
  PL: 161.6 mg/dL
  RALB: 2.6 g/dL
  TBIL: 0.042 mg/dL
  TC: 85 mg/dL
  TG: 122.8 mg/dL
  TP: 5.6 g/dL
  gamma-GTP: 1 IU/L
[3]
  TERMINAL_BW: 313.4 g
  APTT: 18.7 s
  Bas: 0.4%
  Eos: 1%
  Fbg: 250.2 mg/dL
  Hb: 14.4 g/dL
  Ht: 43.9%
  Lym: 74.6%
  MCH: 19.9 pg
  MCHC: 32.8%
  MCV: 60.6 fL
  Mono: 2.4%
  Neu: 21%
  PT: 13.6 s
  Plat: 122.6 x10_4/uL
  RBC: 723.8 x10_4/ul
  Ret: 4.5%
  WBC: 116.9 x10_2/uL
  KIDNEY_L: 1.2 g
  KIDNEY_R: 1.2 g
  KIDNEY_TOTAL: 2.4 g
  LIVER: 13.3 g
  A/G: 0.8
  ALP: 1514.4 IU/L
  ALT: 46 IU/L
  AST: 79.6 IU/L
  BUN: 15.4 mg/dL
  CRE: 0.2 mg/dL
  Ca: 10.9 mg/dL
  Cl: 104.4 meq/L
  DBIL: 0.012 mg/dL
  GLC: 172.4 mg/dL
  IP: 7.1 mg/dL
  K: 3.9 meq/L
  LDH: 90 IU/L
  Na: 143 meq/L
  PL: 167.4 mg/dL
  RALB: 2.6 g/dL
  TBIL: 0.044 mg/dL
  TC: 82.4 mg/dL
  TG: 135.6 mg/dL
  TP: 5.7 g/dL
  gamma-GTP: 1.4 IU/L
[4]
  TERMINAL_BW: 389.2 g
  APTT: 18.6 s
  Bas: 0.4%
  Eos: 1.4%
  Fbg: 262.6 mg/dL
  Hb: 15.3 g/dL
  Ht: 45.3%
  Lym: 79.6%
  MCH: 18.8 pg
  MCHC: 33.7%
  MCV: 55.8 fL
  Mono: 2%
  Neu: 15.8%
  PT: 13.4 s
  Plat: 106.8 x10_4/uL
  RBC: 812.8 x10_4/ul
  Ret: 2.1%
  WBC: 76.6 x10_2/uL
  KIDNEY_L: 1.4 g
  KIDNEY_R: 1.4 g
  KIDNEY_TOTAL: 2.7 g
  LIVER: 15.3 g
  A/G: 0.8
  ALP: 1373.8 IU/L
  ALT: 36.6 IU/L
  AST: 62 IU/L
  BUN: 15.4 mg/dL
  CRE: 0.2 mg/dL
  Ca: 10.7 mg/dL
  Cl: 105.8 meq/L
  DBIL: 0.008 mg/dL
  GLC: 185.8 mg/dL
  IP: 6.3 mg/dL
  K: 4.2 meq/L
  LDH: 57 IU/L
  Na: 144 meq/L
  PL: 158.4 mg/dL
  RALB: 2.7 g/dL
  TBIL: 0.056 mg/dL
  TC: 72.8 mg/dL
  TG: 159.8 mg/dL
  TP: 6.1 g/dL
  gamma-GTP: 1 IU/L
[5]
  TERMINAL_BW: 218.3 g
  APTT: 21.4 s
  Bas: 0%
  Eos: 1.2%
  Fbg: 274.2 mg/dL
  Hb: 13.8 g/dL
  Ht: 41.1%
  Lym: 74.2%
  MCH: 21.5 pg
  MCHC: 33.7%
  MCV: 63.9 fL
  Mono: 3.8%
  Neu: 20%
  PT: 13.2 s
  Plat: 117.9 x10_4/uL
  RBC: 643 x10_4/ul
  Ret: 6.6%
  WBC: 108.6 x10_2/uL
  KIDNEY_L: 1 g
  KIDNEY_R: 1 g
  KIDNEY_TOTAL: 1.9 g
  LIVER: 10.3 g
  A/G: 0.9
  ALP: 1550.6 IU/L
  ALT: 53.8 IU/L
  AST: 79 IU/L
  BUN: 14.2 mg/dL
  CRE: 0.2 mg/dL
  Ca: 11.1 mg/dL
  Cl: 104.6 meq/L
  DBIL: 0.012 mg/dL
  GLC: 166.2 mg/dL
  IP: 8.1 mg/dL
  K: 4 meq/L
  LDH: 88.2 IU/L
  Na: 141 meq/L
  PL: 142.4 mg/dL
  RALB: 2.6 g/dL
  TBIL: 0.054 mg/dL
  TC: 75.4 mg/dL
  TG: 76 mg/dL
  TP: 5.5 g/dL
  gamma-GTP: 1 IU/L
[6]
  TERMINAL_BW: 251.1 g
  APTT: 20.5 s
  Bas: 0%
  Eos: 0.8%
  Fbg: 251.8 mg/dL
  Hb: 13.9 g/dL
  Ht: 41.6%
  Lym: 74.8%
  MCH: 20.9 pg
  MCHC: 33.5%
  MCV: 62.4 fL
  Mono: 2.2%
  Neu: 21.4%
  PT: 13 s
  Plat: 116.7 x10_4/uL
  RBC: 667 x10_4/ul
  Ret: 6.1%
  WBC: 109.2 x10_2/uL
  KIDNEY_L: 1.1 g
  KIDNEY_R: 1 g
  KIDNEY_TOTAL: 2.1 g
  LIVER: 11.9 g
  A/G: 0.9
  ALP: 1700.8 IU/L
  ALT: 48.8 IU/L
  AST: 75.6 IU/L
  BUN: 16.6 mg/dL
  CRE: 0.2 mg/dL
  Ca: 10.9 mg/dL
  Cl: 105.2 meq/L
  DBIL: 0.012 mg/dL
  GLC: 192.4 mg/dL
  IP: 6.9 mg/dL
  K: 4.2 meq/L
  LDH: 77.4 IU/L
  Na: 141.4 meq/L
  PL: 157.4 mg/dL
  RALB: 2.6 g/dL
  TBIL: 0.036 mg/dL
  TC: 78.6 mg/dL
  TG: 104.8 mg/dL
  TP: 5.5 g/dL
  gamma-GTP: 1.4 IU/L
[7]
  TERMINAL_BW: 311.7 g
  APTT: 17.9 s
  Bas: 0.8%
  Eos: 1%
  Fbg: 253.2 mg/dL
  Hb: 14.4 g/dL
  Ht: 43.7%
  Lym: 77.2%
  MCH: 20.2 pg
  MCHC: 32.9%
  MCV: 61.6 fL
  Mono: 2.4%
  Neu: 18.4%
  PT: 13.4 s
  Plat: 117.2 x10_4/uL
  RBC: 710.8 x10_4/ul
  Ret: 4.8%
  WBC: 98 x10_2/uL
  KIDNEY_L: 1.2 g
  KIDNEY_R: 1.2 g
  KIDNEY_TOTAL: 2.4 g
  LIVER: 13.6 g
  A/G: 0.8
  ALP: 1617 IU/L
  ALT: 40.2 IU/L
  AST: 72.2 IU/L
  BUN: 16.2 mg/dL
  CRE: 0.2 mg/dL
  Ca: 10.8 mg/dL
  Cl: 104.8 meq/L
  DBIL: 0.008 mg/dL
  GLC: 189.6 mg/dL
  IP: 7.5 mg/dL
  K: 3.8 meq/L
  LDH: 83.4 IU/L
  Na: 142.6 meq/L
  PL: 151.8 mg/dL
  RALB: 2.7 g/dL
  TBIL: 0.04 mg/dL
  TC: 75 mg/dL
  TG: 118.2 mg/dL
  TP: 5.8 g/dL
  gamma-GTP: 1 IU/L
[8]
  TERMINAL_BW: 393.2 g
  APTT: 17.1 s
  Bas: 0.2%
  Eos: 1.2%
  Fbg: 277.4 mg/dL
  Hb: 15.2 g/dL
  Ht: 45.2%
  Lym: 78.4%
  MCH: 19 pg
  MCHC: 33.6%
  MCV: 56.6 fL
  Mono: 1.6%
  Neu: 17.6%
  PT: 13.2 s
  Plat: 110.7 x10_4/uL
  RBC: 798 x10_4/ul
  Ret: 2.4%
  WBC: 93.4 x10_2/uL
  KIDNEY_L: 1.4 g
  KIDNEY_R: 1.4 g
  KIDNEY_TOTAL: 2.8 g
  LIVER: 15.5 g
  A/G: 0.8
  ALP: 1207.4 IU/L
  ALT: 42 IU/L
  AST: 64.8 IU/L
  BUN: 15.2 mg/dL
  CRE: 0.2 mg/dL
  Ca: 10.7 mg/dL
  Cl: 105 meq/L
  DBIL: 0.01 mg/dL
  GLC: 178.8 mg/dL
  IP: 6.4 mg/dL
  K: 4.1 meq/L
  LDH: 67.2 IU/L
  Na: 143.6 meq/L
  PL: 142.6 mg/dL
  RALB: 2.7 g/dL
  TBIL: 0.054 mg/dL
  TC: 68.4 mg/dL
  TG: 125.4 mg/dL
  TP: 6.2 g/dL
  gamma-GTP: 0.8 IU/L

Source: ChEMBL document CHEMBL3885861, “Open TG-GATES”
